# In patent US20240309319A1, “COMPOSITIONS AND METHODS FOR THE GENERATION OF NEURONS AND USES THEREOF” (Washington University, priority 2021, published 2024):
# System: cortical markers TBR1, MEF2C, BRN2, NEUROD2
# Assay: qPCR of cortical markers in miNs versus starting fibroblasts
# Format: cell-based, human
# Details: combination of MYT1L and ISX9 with miR-9/9*-124, day 30 miNs, ISX9 10 uM on PID 3, 6, 10, 14
# Procedure: Direct Neuronal Reprogramming: Human fibroblasts were directly reprogrammed to miNs as previously described with modifications. Briefly, fibroblasts were transduced with supernatant lentivirus mix comprised of dox-inducible miR-9/9*-124, rtTA, and the transcription factor MYT1L. From PID1 to PID14 cells were treated with DAPT (2 uM) to increase neurite outgrowth and neuronal differentiation, and on PID 3, 6, 10, and 14, cells were also treated with the NEUROD1-activator ISX9 (10 uM) to push cortical fate. Fibroblasts and reprogramming cells were cultured in DMEM+10% FBS through replating at PID5. On PID6, cells were switched to Neurobasal-A with B27+(1000×) and Glutamax (500×), containing 1 μg/mL doxycycline, 200 μM dibutyl cyclic AMP, 1 mM valproic acid, 2 uM DAPT, 200 nM Ascorbic Acid, 10 ng/mL BDNF, 10 ng/mL NT-3, 1 μM retinoic acid, 10 uM ISX9, 100×RVC, and 3 μg/mL puromycin. […]
# Quantitative PCR (qPCR): Total RNA was extracted from miNs using TRIzol (Invitrogen, USA) following manufacturer protocol. Reverse-transcription was performed with 150-200 ng of RNA with SuperScript IV First Strand Synthesis SuperMix (Invitrogen, USA). qPCR assay was run with SYBR Green PCR Master Mix and plate was run and analyzed on StepOnePlus Real-Time PCR System (AB Applied Biosystems, Germany). […] Expression values were calculated in Excel using the delta Ct method and Z-score calculation.
smiles,measurement,value
"O=C(NC1CC1)c1cc(-c2cccs2)on1 [ISX9, Isoxazole 9]",Cortical fate (cortical marker expression by qPCR),sufficient to drive the cortical fate
